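1) Cells in 96-well plates. 2) Compound, 48 h, 5 concentrations. 3) Linear interpolation between surrounding doses. 4) Unreached endpoint = highest concentration. GI50 = concentration required for 50% inhibition of growth.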 Activity calls are given as the source filed them. Rule as the data show it: active = GI50 up to about 1.1 µM and inactive = higher.
Experiments:
Experiment in all cases: NCI anticancer screen, dose series, 48 h
UO-31 = tested on: UO-31
SNB-75 = tested on: SNB-75
K562 = tested on: K562
DLD-1 = tested on: DLD-1
DMS-114 = tested on: DMS-114
CAKI-1 = tested on: CAKI-1
KM12 = tested on: KM12
HOP-92 = tested on: HOP-92
SK-MEL-5 = tested on: SK-MEL-5
OVCAR-8 = tested on: OVCAR-8
UACC-257 = tested on: UACC-257
DMS-273 = tested on: DMS-273
MOLT-4 = tested on: MOLT-4
SK-MEL-2 = tested on: SK-MEL-2
SK-MEL-28 = tested on: SK-MEL-28
OVCAR-3 = tested on: OVCAR-3
NCI-H23 = tested on: NCI-H23
SR = tested on: SR
SW-620 = tested on: SW-620
ACHN = tested on: ACHN
U-251 = tested on: U-251
HOP-18 = tested on: HOP-18
XF498 = tested on: XF498
HL-60 = tested on: HL-60
OVCAR-4 = tested on: OVCAR-4
TK-10 = tested on: TK-10
HCC 2998 = tested on: HCC 2998
EKVX = tested on: EKVX
M19-MEL = tested on: M19-MEL
OVCAR-5 = tested on: OVCAR-5
HCT-116 = tested on: HCT-116
786-0 = tested on: 786-0
LXFL 529 = tested on: LXFL 529
UACC-62 = tested on: UACC-62
IGROV-1 = tested on: IGROV-1
CCRF-CEM = tested on: CCRF-CEM
A549 = tested on: A549
LOX IMVI = tested on: LOX IMVI
SN12C = tested on: SN12C
RXF 393 = tested on: RXF 393
A498 = tested on: A498
HOP-62 = tested on: HOP-62
HCT-15 = tested on: HCT-15
SF-295 = tested on: SF-295
KM-20L2 = tested on: KM-20L2
COLO 205 = tested on: COLO 205
RPMI-8226 = tested on: RPMI-8226
NCI-H522 = tested on: NCI-H522
M14 = tested on: M14
Malme-3M = tested on: Malme-3M
SK-OV-3 = tested on: SK-OV-3
NCI-H460 = tested on: NCI-H460
SNB-19 = tested on: SNB-19
SNB-78 = tested on: SNB-78
NCI-H226 = tested on: NCI-H226
HT-29 = tested on: HT-29
SF-539 = tested on: SF-539
SF-268 = tested on: SF-268
RXF 631 = tested on: RXF 631

Measured: GI50

COC[C@@H]1[C@H]2OC(C)(C)O[C@H]2C(=O)N1C(=O)c1ccc(OC)cc1
inactive: UO-31 > 100 µM | SNB-75 > 100 µM | K562 > 100 µM | DLD-1 > 100 µM | DMS-114 > 100 µM | CAKI-1 > 100 µM | KM12 > 100 µM | HOP-92 > 100 µM | SK-MEL-5 > 100 µM | OVCAR-8 > 100 µM | UACC-257 > 100 µM | DMS-273 > 100 µM | MOLT-4 > 100 µM | SK-MEL-2 > 100 µM | SK-MEL-28 > 100 µM | OVCAR-3 > 100 µM | NCI-H23 > 100 µM | SR > 100 µM | SW-620 > 100 µM | ACHN > 100 µM | U-251 > 100 µM | HOP-18 > 100 µM | XF498 > 100 µM | HL-60 > 100 µM | OVCAR-4 > 100 µM | TK-10 > 100 µM | HCC 2998 > 100 µM | EKVX > 100 µM | M19-MEL > 100 µM | OVCAR-5 > 100 µM | HCT-116 > 100 µM | 786-0 > 100 µM | LXFL 529 > 100 µM | UACC-62 > 100 µM | IGROV-1 > 100 µM | CCRF-CEM > 100 µM | A549 > 100 µM | LOX IMVI > 100 µM | SN12C > 100 µM | RXF 393 > 100 µM | A498 > 100 µM | HOP-62 > 100 µM | SF-295 > 100 µM | KM-20L2 > 100 µM | COLO 205 > 100 µM | RPMI-8226 > 100 µM | NCI-H522 > 71.8 µM | M14 > 100 µM | Malme-3M > 100 µM | SK-OV-3 > 100 µM | NCI-H460 > 100 µM | SNB-19 > 100 µM | SNB-78 > 100 µM | NCI-H226 > 100 µM | HT-29 > 100 µM | SF-539 > 100 µM | SF-268 > 100 µM
> 100 µM: HCT-15

COc1ccc(S(=O)(=O)N/N=C/CN2C(=O)c3ccccc3C2=O)cc1OC
inactive: UO-31 > 100 µM | SNB-75 65.2 µM | K562 > 100 µM | DLD-1 > 100 µM | DMS-114 > 100 µM | CAKI-1 > 100 µM | KM12 > 100 µM | SK-MEL-5 > 100 µM | OVCAR-8 > 100 µM | UACC-257 > 100 µM | DMS-273 > 100 µM | MOLT-4 > 100 µM | SK-MEL-2 > 100 µM | OVCAR-3 > 100 µM | NCI-H23 > 100 µM | SR > 100 µM | SW-620 > 100 µM | ACHN > 100 µM | U-251 > 100 µM | XF498 > 100 µM | HL-60 > 100 µM | OVCAR-4 > 100 µM | HCC 2998 > 100 µM | EKVX > 100 µM | M19-MEL > 100 µM | HCT-116 > 100 µM | 786-0 > 100 µM | LXFL 529 > 100 µM | UACC-62 > 100 µM | IGROV-1 > 100 µM | CCRF-CEM > 100 µM | A549 > 100 µM | LOX IMVI > 100 µM | RXF 393 > 100 µM | A498 > 100 µM | HOP-62 > 100 µM | SF-295 > 100 µM | KM-20L2 > 100 µM | COLO 205 > 100 µM | RPMI-8226 > 100 µM | NCI-H522 > 100 µM | M14 > 100 µM | RXF 631 > 100 µM | Malme-3M > 100 µM | SK-OV-3 > 100 µM | NCI-H460 > 100 µM | SNB-19 > 100 µM | HT-29 > 100 µM | SF-539 > 100 µM | SF-268 > 100 µM
> 100 µM: HCT-15

C/C(CC(=O)Nc1cc(Cl)c(Cl)cc1Cl)=N\NC(N)=O
inactive: UO-31 > 100 µM | SNB-75 66.5 µM | K562 > 100 µM | DLD-1 > 100 µM | DMS-114 > 100 µM | KM12 > 100 µM | HOP-92 39.1 µM | SK-MEL-5 > 100 µM | OVCAR-8 > 100 µM | UACC-257 > 100 µM | DMS-273 > 100 µM | MOLT-4 > 100 µM | SK-MEL-2 > 100 µM | SK-MEL-28 > 100 µM | OVCAR-3 > 100 µM | NCI-H23 > 100 µM | SW-620 > 100 µM | U-251 > 100 µM | XF498 > 100 µM | HL-60 > 100 µM | TK-10 > 100 µM | HCC 2998 > 100 µM | EKVX > 100 µM | M19-MEL > 100 µM | OVCAR-5 > 100 µM | HCT-116 > 100 µM | 786-0 > 100 µM | LXFL 529 > 100 µM | UACC-62 > 100 µM | IGROV-1 > 100 µM | CCRF-CEM > 100 µM | A549 > 100 µM | LOX IMVI > 100 µM | RXF 393 61.7 µM | HOP-62 > 100 µM | SF-295 > 100 µM | KM-20L2 > 100 µM | COLO 205 > 100 µM | RPMI-8226 > 100 µM | NCI-H522 28.1 µM | M14 > 100 µM | RXF 631 > 100 µM | Malme-3M > 100 µM | SK-OV-3 > 100 µM | NCI-H226 > 100 µM | HT-29 > 100 µM | SF-539 > 100 µM | SF-268 > 100 µM

Source: ChEMBL document CHEMBL1201862, “PubChem BioAssay data set” (2004)
